In the NIST ThermoML archive (doi:10.1021/acs.jced.5b00367):
± gives the expanded uncertainty stated by the source.

Columns and labels:
[1] = Crystal; visual observation
[2] = wn = mass fraction of the nth substance listed; settings: 101 kPa, Liquid, Alternating current cell with electrodes, w1 = 0.01
[3] = mn = molality of the nth substance listed, in mol/kg; settings: 303.15 K, 100 kPa, Liquid, Alternating current cell with electrodes

In the case of `CCCCCCCCCCCCCCCC[N+](C)(C)C.[Br-]` [N,N,N-trimethyl-1-hexadecanaminium bromide], the Normal melting temperature [1] is reported as 247.00 ± 1.1 °C.

For `CCCCCCCCCC[N+](CC)(CC)CCCCCCCCCC.[Br-]` [didecyldiethylammonium bromide], the Normal melting temperature [1] was 45.00 ± 1.1 °C.

In the case of `CCCCCCCCCCCC[N+](C)(C)C.[Br-]` [dodecyltrimethylammonium bromide], the Normal melting temperature [1] is reported as 265.00 ± 1.1 °C.

In the case of `CCCCCCCCCCCC[N+](C)(C)CC[N+](C)(C)CCCCCCCCCCCC.[Br-].[Br-]` [1,2-bis(dimethyldodecylammonium)ethane dibromide], the Normal melting temperature [1] is reported as 157.00 ± 1.1 °C.

`CCCCCCCCCCCC[N+](C)(C)CC[N+](C)(C)CCCCCCCCCCCC.[Br-].[Br-]` [1,2-bis(dimethyldodecylammonium)ethane dibromide] + O gave an electrical conductivity ([2]; 275.15 K) of 0.0196 ± 0.0078 S/m, an electrical conductivity ([2]; 276.25 K) of 0.0196 ± 0.0078 S/m and an electrical conductivity ([2]; 277.35 K) of 0.0196 ± 0.0078 S/m. For the same compound, the electrical conductivity ([2]; 278.15 K) was 0.0196 ± 0.0079 S/m, the electrical conductivity ([2]; 279.45 K) was 0.0197 ± 0.0079 S/m and the electrical conductivity ([2]; 280.25 K) was 0.0197 ± 0.0079 S/m. The electrical conductivity ([2]; 281.35 K) was 0.0197 ± 0.0079 S/m, the electrical conductivity ([2]; 282.15 K) was 0.0197 ± 0.0079 S/m and the electrical conductivity ([2]; 283.15 K) was 0.0198 ± 0.0079 S/m. The electrical conductivity ([2]; 284.25 K) was 0.0198 ± 0.0079 S/m, the electrical conductivity ([2]; 285.15 K) was 0.0198 ± 0.0079 S/m and the electrical conductivity ([2]; 285.65 K) was 0.0198 ± 0.0079 S/m. It also gave an electrical conductivity ([2]; 286.15 K) of 0.0199 ± 0.008 S/m, an electrical conductivity ([2]; 288.15 K) of 0.0202 ± 0.0081 S/m and an electrical conductivity ([2]; 289.15 K) of 0.0203 ± 0.0081 S/m. The electrical conductivity ([2]; 290.15 K) was 0.0204 ± 0.0082 S/m, the electrical conductivity ([2]; 291.15 K) was 0.0205 ± 0.0082 S/m and the electrical conductivity ([2]; 292.15 K) was 0.0206 ± 0.0083 S/m. The electrical conductivity ([2]; 293.15 K) was 0.021 ± 0.0084 S/m, the electrical conductivity ([2]; 295.75 K) was 0.0212 ± 0.0085 S/m and the electrical conductivity ([2]; 298.15 K) was 0.0215 ± 0.0086 S/m. For the same compound, the electrical conductivity ([2]; 299.65 K) was 0.0218 ± 0.0087 S/m, the electrical conductivity ([2]; 301.65 K) was 0.022 ± 0.0088 S/m and the electrical conductivity ([2]; 303.45 K) was 0.0222 ± 0.0089 S/m. The electrical conductivity ([2]; 305.75 K) was 0.0225 ± 0.009 S/m, the electrical conductivity ([2]; 308.15 K) was 0.0228 ± 0.0091 S/m and the electrical conductivity ([2]; 310.25 K) was 0.0229 ± 0.0092 S/m. It also gave an electrical conductivity ([2]; 311.15 K) of 0.023 ± 0.0092 S/m, an electrical conductivity ([2]; 313.15 K) of 0.0232 ± 0.0093 S/m and an electrical conductivity ([2]; 315.15 K) of 0.0235 ± 0.0094 S/m. The electrical conductivity ([2]; 317.95 K) was 0.0237 ± 0.0095 S/m, the electrical conductivity ([2]; 318.15 K) was 0.024 ± 0.0096 S/m and the electrical conductivity ([2]; 320.55 K) was 0.0242 ± 0.0097 S/m. The electrical conductivity ([2]; 323.15 K) was 0.0244 ± 0.0097 S/m, the electrical conductivity ([2]; 325.55 K) was 0.0245 ± 0.0098 S/m and the electrical conductivity ([2]; 327.15 K) was 0.0248 ± 0.0099 S/m. For the same compound, the electrical conductivity ([2]; 329.35 K) was 0.0249 ± 0.01 S/m, the electrical conductivity ([2]; 331.55 K) was 0.025 ± 0.01 S/m and the electrical conductivity ([2]; 334.15 K) was 0.0252 ± 0.01 S/m. It also gave an electrical conductivity ([2]; 335.55 K) of 0.0254 ± 0.01 S/m, an electrical conductivity ([2]; 337.95 K) of 0.0255 ± 0.01 S/m and an electrical conductivity ([2]; 338.35 K) of 0.0258 ± 0.01 S/m. The electrical conductivity ([2]; 340.45 K) was 0.026 ± 0.01 S/m, the electrical conductivity ([2]; 343.15 K) was 0.0263 ± 0.011 S/m and the electrical conductivity ([2]; 345.15 K) was 0.0265 ± 0.011 S/m. It also gave an electrical conductivity ([2]; 347.15 K) of 0.0266 ± 0.011 S/m, an electrical conductivity ([2]; 349.15 K) of 0.0267 ± 0.011 S/m and an electrical conductivity ([2]; 353.05 K) of 0.027 ± 0.011 S/m. It also gave an electrical conductivity ([3]; m1 = 0.000201) of 0.00422 ± 0.0017 S/m, an electrical conductivity ([3]; m1 = 0.000301) of 0.00612 ± 0.0024 S/m and an electrical conductivity ([3]; m1 = 0.000402) of 0.00816 ± 0.0033 S/m. The electrical conductivity ([3]; m1 = 0.000503) was 0.00967 ± 0.0039 S/m, the electrical conductivity ([3]; m1 = 0.000603) was 0.012 ± 0.0048 S/m and the electrical conductivity ([3]; m1 = 0.000703) was 0.0133 ± 0.0053 S/m. It also gave an electrical conductivity ([3]; m1 = 0.000803) of 0.0162 ± 0.0065 S/m, an electrical conductivity ([3]; m1 = 0.001206) of 0.0197 ± 0.0079 S/m and an electrical conductivity ([3]; m1 = 0.001407) of 0.0205 ± 0.0082 S/m. It also gave an electrical conductivity ([3]; m1 = 0.001608) of 0.0212 ± 0.0085 S/m, an electrical conductivity ([3]; m1 = 0.001809) of 0.022 ± 0.0088 S/m and an electrical conductivity ([3]; m1 = 0.00201) of 0.0226 ± 0.009 S/m. For the same compound, the electrical conductivity ([3]; m1 = 0.002211) was 0.0231 ± 0.0092 S/m.

In the case of `CCCCCCCCCCCCCCCC[N+](CC)(CC)CCCCCCCCCCCCCCCC.[Br-]` [diethyldihexadecylammonium bromide], the Normal melting temperature [1] is reported as 73.80 ± 1.1 °C.

Compound `CCCCCCCCCCCCCCCC[N+](C)(C)CC[N+](C)(C)CCCCCCCCCCCCCCCC.[Br-].[Br-]` + O has an electrical conductivity ([3]; m1 = 5e-06) of 0.00031 ± 0.00013 S/m, an electrical conductivity ([3]; m1 = 1e-05) of 0.0004 ± 0.00016 S/m and an electrical conductivity ([3]; m1 = 1.5e-05) of 0.00049 ± 0.0002 S/m. It also gave an electrical conductivity ([3]; m1 = 2e-05) of 0.00058 ± 0.00023 S/m, an electrical conductivity ([3]; m1 = 2.5e-05) of 0.00065 ± 0.00026 S/m and an electrical conductivity ([3]; m1 = 3e-05) of 0.00073 ± 0.00029 S/m. The electrical conductivity ([3]; m1 = 3.5e-05) was 0.0008 ± 0.00032 S/m, the electrical conductivity ([3]; m1 = 4e-05) was 0.00082 ± 0.00033 S/m and the electrical conductivity ([3]; m1 = 5e-05) was 0.00086 ± 0.00034 S/m. For the same compound, the electrical conductivity ([3]; m1 = 6e-05) was 0.00088 ± 0.00035 S/m.

In the case of `CCCCCCCCCCCCCCCC[N+](C)(C)CC[N+](C)(C)CCCCCCCCCCCCCCCC.[Br-].[Br-]`, the Normal melting temperature [1] is reported as 175.00 ± 1.1 °C.

Compound `CCCCCCCCCCCC[N+](CC)(CC)CCCCCCCCCCCC.[Br-]` [didodecyldiethylammonium bromide] has a Normal melting temperature [1] of 52.20 ± 1.1 °C.
